{"source": "patent US20090105346A1", "about": "“Novel crystalline forms of armodafinil and preparation thereof” (priority 2007, published 2009)", "origin": "cited, not measured here", "details": "S enantiomer of modafinil compared with R enantiomer; Prisinzano et al., Tetrahedron: Asymmetry (2004)"}
{"smiles": "NC(=O)C[S+]([O-])C(c1ccccc1)c1ccccc1", "note": "(single isomer, unassigned) [S enantiomer]", "values": [{"measurement": "elimination from the body relative to the R enantiomer", "result": "three times faster"}]}
